Measured values published in patent US9708314B2, “Heterocyclic amide compound” (NISSAN CHEMICAL INDUSTRIES, LTD., priority 2013, dated 2017).

Assays:
Type in all cases: in vivo
Stellaria media = test: Test Example 4: herbicidal effect by application to foliage (diluvial soil, plastic box); conditions: for P (Stellaria media) herbicidal effect: application herbicide amount 320 g/ha
Method in brief: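 Emulsion-formulated compound, diluted to a predetermined g/ha dose, applied by small sprayer to leaves and stems of 14-day-old seedlings grown in sterilized diluvial soil. Effect rated on 0–5 herbicidal-ratio scale three weeks on.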

[1] = tested on: directly sowed Oryza sativa; test: Test Example 3: effect on crop by application to foliage (Wagner pot, water depth 0.1-0.5 cm); conditions: Nineteenth Table; for b (directly sowed Oryza sativa) effect on crop grade: application herbicide amount 320 g/ha; for b (effect on crop grade): application to foliage
Method in brief: (§1)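 Alluvial soil in 1/10000 are Wagner pots, sown and grown 14 days in a 25–30 °C greenhouse. An emulsifiable concentrate diluted in water to the set dose (g/ha) was sprayed on stems and leaves. Effect scored three weeks later on a 0–5 scale: 5 = ≥90% herbicidal ratio, 0 = ≤5%.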

Cyperus difformis = test: Test Example 3: herbicidal effect by application to foliage (Wagner pot, water depth 0.1-0.5 cm); conditions: Nineteenth Table; for E (Cyperus difformis) herbicidal ratio grade: application herbicide amount 320 g/ha; for E (herbicidal effect grade): application to foliage
Method in brief: as §1

Leptochloa chinensis = test: as above; conditions: Nineteenth Table; for D (Leptochloa chinensis) herbicidal ratio grade: application herbicide amount 320 g/ha; for D (herbicidal effect grade): application to foliage
Method in brief: as §1

[2] = tested on: Echinochloa crus-galli var. crus-galli; test: as above; conditions: Nineteenth Table; for H (Echinochloa crus-galli var. crus-galli) herbicidal ratio grade: application herbicide amount 320 g/ha; for H (herbicidal effect grade): application to foliage
Method in brief: as §1

[3] = tested on: Echinochloa oryzacola Vasing.; test: Test Example 1: herbicidal activity, application before weed generation in submerged conditions; conditions: Seventeenth Table
Method in brief: (§2)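 Rating, on a six-step scale from almost no effect (0) to almost completely withered (5), was made three weeks after pre-emergence treatment. Treatment was surface application to flooded pots at g/ha rates, with plants kept at 25° C. to 30° C.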

Scirpus juncoides = test: as above; conditions: Seventeenth Table
Method in brief: as §2

Monochoria vaginalis = test: as above; conditions: Seventeenth Table
Method in brief: as §2

[4] = tested on: transplanted Oryza sativa; test: Test Example 1: effect on crop, application before weed generation in submerged conditions; conditions: Seventeenth Table
Method in brief: as §2

[5] = Application herbicide amount 320 g/ha
[6] = application herbicide amount 192 g/ha
[7] = Application herbicide amount 192 g/ha
[8] = application herbicide amount 141 g/ha
[9] = Application herbicide amount 141 g/ha

Compound | P (Stellaria media) herbicidal effect (Stellaria media; application to foliage) | b (directly sowed Oryza sativa) effect on crop grade [1] | E (Cyperus difformis) herbicidal ratio grade (Cyperus difformis) | D (Leptochloa chinensis) herbicidal ratio grade (Leptochloa chinensis) | H (Echinochloa crus-galli var. crus-galli) herbicidal ratio grade [2] | A: Echinochloa oryzicola Vasing. (herbicidal effect grade) [3, 5] | B: Scirpus juncoides (herbicidal effect grade) (Scirpus juncoides; [5]) | C: Monochoria vaginalis (herbicidal effect grade) (Monochoria vaginalis; [5]) | a: transplanted Oryza sativa (effect on crop grade) [4, 5] | other results
Cc1nnc(NC(=O)c2ccc(C(F)(F)F)n3c(-c4ccc(Cl)cc4)nnc23)o1 [1-017] | 4 (Herbicidal ratio of 70% or more and less than 90%) | 0 (Herbicidal ratio of 5% or less (almost no effect)) | 4 (Herbicidal ratio of 70% or more and less than 90%) | 3 (Herbicidal ratio of 40% or more and less than 70%) | 4 (Herbicidal ratio of 70% or more and less than 90%) | 3 (Herbicidal ratio of 40% or more and less than 70%) | 2 (Herbicidal ratio of 20% or more and less than 40%) | 0 (Herbicidal ratio of 5% or less (almost no effect)) | 0 (Herbicidal ratio of 5% or less (almost no effect)) | 
Cc1nnc(NC(=O)c2ccc(C(F)(F)F)n3c(CSCC(F)(F)F)nnc23)o1 [1-031] | 4 (Herbicidal ratio of 70% or more and less than 90%) | 2 (Herbicidal ratio of 20% or more and less than 40%) | 3 (Herbicidal ratio of 40% or more and less than 70%) | 4 (Herbicidal ratio of 70% or more and less than 90%) | 5 (Herbicidal ratio of 90% or more (almost completely withered)) | 4 (Herbicidal ratio of 70% or more and less than 90%) | 3 (Herbicidal ratio of 40% or more and less than 70%) | 3 (Herbicidal ratio of 40% or more and less than 70%) | 0 (Herbicidal ratio of 5% or less (almost no effect)) | 
CCC(C)c1nnc2c(C(=O)Nc3nnc(C)o3)ccc(C(F)(F)F)n12 (stereo not drawn) [1-021] | 5 (Herbicidal ratio of 90% or more (almost completely withered)) | 3 (Herbicidal ratio of 40% or more and less than 70%) | 5 (Herbicidal ratio of 90% or more (almost completely withered)) | 5 (Herbicidal ratio of 90% or more (almost completely withered)) | 5 (Herbicidal ratio of 90% or more (almost completely withered)) | 5 (Herbicidal ratio of 90% or more (almost completely withered)) | 4 (Herbicidal ratio of 70% or more and less than 90%) | 4 (Herbicidal ratio of 70% or more and less than 90%) | 2 (Herbicidal ratio of 20% or more and less than 40%) | 
CCS(=O)(=O)c1nnc2c(C(=O)Nc3nnc(C)o3)ccc(C(F)(F)F)n12 [1-041] | 5 (Herbicidal ratio of 90% or more (almost completely withered)) | 2 (Herbicidal ratio of 20% or more and less than 40%) | 5 (Herbicidal ratio of 90% or more (almost completely withered)) | 5 (Herbicidal ratio of 90% or more (almost completely withered)) | 4 (Herbicidal ratio of 70% or more and less than 90%) | 3 (Herbicidal ratio of 40% or more and less than 70%) | 3 (Herbicidal ratio of 40% or more and less than 70%) | 3 (Herbicidal ratio of 40% or more and less than 70%) | 0 (Herbicidal ratio of 5% or less (almost no effect)) | 
CC(C)c1nnc2c(C(=O)Nc3nnc(C4CC4)o3)ccc(C(F)(F)F)n12 [1-051] | 3 (Herbicidal ratio of 40% or more and less than 70%) | 0 (Herbicidal ratio of 5% or less (almost no effect)) | 4 (Herbicidal ratio of 70% or more and less than 90%) | 5 (Herbicidal ratio of 90% or more (almost completely withered)) | 4 (Herbicidal ratio of 70% or more and less than 90%) | 5 (Herbicidal ratio of 90% or more (almost completely withered)) | 4 (Herbicidal ratio of 70% or more and less than 90%) | 4 (Herbicidal ratio of 70% or more and less than 90%) | 0 (Herbicidal ratio of 5% or less (almost no effect)) | 
Cc1cc(C(=O)Nc2nnnn2C)c2nnc(C(C)C)n2c1C(F)(F)F [2-050] |  |  |  |  |  |  |  |  |  | P (Stellaria media) herbicidal effect grade (Stellaria media; foliage application, 192 g/ha): 3 (Herbicidal ratio of 40% or more and less than 70%); b (effect on crop grade) [1, 6]: 0 (Herbicidal ratio of 5% or less (almost no effect)); E (herbicidal effect grade) (Cyperus difformis; [6]): 3 (Herbicidal ratio of 40% or more and less than 70%); D (herbicidal effect grade) (Leptochloa chinensis; [6]): 3 (Herbicidal ratio of 40% or more and less than 70%); H (herbicidal effect grade) [2, 6]: 4 (Herbicidal ratio of 70% or more and less than 90%); A: Echinochloa oryzicola Vasing. (herbicidal effect grade) [3, 7]: 4 (Herbicidal ratio of 70% or more and less than 90%); B: Scirpus juncoides (herbicidal effect grade) (Scirpus juncoides; [7]): 2 (Herbicidal ratio of 20% or more and less than 40%); C: Monochoria vaginalis (herbicidal effect grade) (Monochoria vaginalis; [7]): 3 (Herbicidal ratio of 40% or more and less than 70%); a: transplanted Oryza sativa (effect on crop grade) [4, 7]: 2 (Herbicidal ratio of 20% or more and less than 40%)
CCN(C)c1nnc2c(C(=O)Nc3nnnn3C)ccc(C(F)(F)F)n12 [2-088] |  |  |  |  |  |  |  |  |  | herbicidal effect, P (Stellaria media) (Stellaria media; application to foliage, 141 g/ha): 5 (Herbicidal ratio of 90% or more (almost completely withered)); b (effect on crop grade) [1, 8]: 3 (Herbicidal ratio of 40% or more and less than 70%); E (herbicidal effect grade) (Cyperus difformis; [8]): 4 (Herbicidal ratio of 70% or more and less than 90%); D (herbicidal effect grade) (Leptochloa chinensis; [8]): 5 (Herbicidal ratio of 90% or more (almost completely withered)); H (herbicidal effect grade) [2, 8]: 5 (Herbicidal ratio of 90% or more (almost completely withered)); A: Echinochloa oryzicola Vasing. (herbicidal effect grade) [3, 9]: 5 (Herbicidal ratio of 90% or more (almost completely withered)); B: Scirpus juncoides (herbicidal effect grade) (Scirpus juncoides; [9]): 5 (Herbicidal ratio of 90% or more (almost completely withered)); C: Monochoria vaginalis (herbicidal effect grade) (Monochoria vaginalis; [9]): 5 (Herbicidal ratio of 90% or more (almost completely withered)); a: transplanted Oryza sativa (effect on crop grade) [4, 9]: 3 (Herbicidal ratio of 40% or more and less than 70%)
